Measurements published in paper PMC7927616, “Dual‐Targeting Peptide‐Guided Approach for Precision Delivery and Cancer Monitoring by Using a Safe Upconversion Nanoplatform” (Advanced Science, 2021).

Columns and labels:
[1] = In vivo biodistribution by ICP-MS (Gd); parameters: species or system BALB/c nude mice; settings: mouse, iv
p65 in C666 cells = test: NF‐κB signaling analysis by Western blotting; type: cell-based; settings: Western blot band density
Description: (§1) NF‐ĸB signaling pathway is critical for the survival of EBV‐infected tumor cells. Here we investigated if our nanoprobes could affect this oncogenic pathway. EBV‐positive LCL3 and C666 cells were used as models, EBV‐negative HK1 cells were used as control and Western blot was used to analyze the protein expression of p65, a major transcription factor in the NF‐ĸB family. […] GAPDH and Histone are regarded as internal standards in cytosolic and nuclear fractions, respectively. […] This is consistent with the cellular uptake results. The negligible differences of p65 expression level in HK1 cells were quantified after various treatments in Figure S28 (Supporting Information).
(§2) EBV‐positive C666, LCL3 and EBV‐negative HK1 cell pellets were treated with phosphatase and protease inhibitors at 0–4 °C for 30 min. The total protein concentrations were calculated by protein absorbance. The protein was resolved by sodium dodecyl sulfate‐polyacrylamide gel electrophoresis (SDS‐PAGE) and transferred to cellulose filter membranes. The membranes were blocked with 3% BSA in tris‐buffered saline in 0.1% Tween 20 (TBST) for 1 h with gentle shaking and subsequently incubated with primary antibodies (1:1000) in 3% BSA in TBST at 4 °C for overnight. […] Lastly, the density of bands was determined by image analysis system after washing with TBST buffer three times.

p65 in LCL3 cells = test: NF‐κB signaling analysis by Western blotting; type: cell-based; settings: Western blot band density
Description: as §1, §2

Substance | Tumor uptake [1] | Decreased p65 expression, nuclear fraction (p65 in C666 cells) | Decreased p65 expression, nuclear fraction (p65 in LCL3 cells)
NaGdF4:Yb^3+, Er^3+@NaGdF4 [UCNP] | nearly undetectable |  | 
‐Ahx‐YFMVFGGRrRKGGFWLY [P5] |  | 89% | 86%
